Results on 2 compounds are retold here after patent US11058691B2, “Nitric oxide releasing prostaglandin derivatives for treating normal tension glaucoma” (BAUSCH & LOMB INCORPORATED, priority 2016, dated 2021).

“Also recorded” adds a separate entry of the source. Structures can show the parent of a compound that is named as a salt.

A short description of assay [1]: Post hoc analysis of two Phase 3 clinical studies: IOP lowering in fellow eyes with baseline IOP ≤21 mm Hg. The assay is classed as in vivo, human. As to conditions: for IOP lowering: fellow eyes with normal IOP at baseline (≤21 mm Hg mean diurnal). From the text:
The findings reported below derive from a post hoc analysis of the results of two multicenter, double-masked, parallel-group Phase 3 clinical studies that evaluated the intraocular pressure (IOP) lowering effect of a 0.024% solution of Compound (1) dissolved in vehicle in subjects with open-angle glaucoma or ocular hypertension.
Subjects≥18 years instilled one drop of a 0.024% solution of Compound (1) once daily in the evening and vehicle in the morning or timolol maleate 0.5% twice daily for 3 months (active controlled efficacy phase). Thereafter all subjects instilled Compound (1) for a further 9 months in the first study or 3 months in the second study (open-label safety extension phase).
Intraocular pressure (IOP) was measured at 8 AM, 12 PM, and 4 PM at all visits including baseline, week 2, week 6, month 3, month 6 (both studies) and months 9 and 12 (first study only).
Non-study (i.e. fellow) eyes with normal IOP at baseline treated with Compound (1) 0.024% once a day in the evening (n=50; treatment for up to 12 months) or with timolol maleate 0.5% twice a day (n=17; treatment for 3 months) were identified, and IOP outcomes were summarized using descriptive statistics and two-sided, 95% confidence intervals (CI) for the means.
Normal IOP was defined as ≤21 mm Hg (mean diurnal; average of 8 AM, 12 PM and 4 PM measurements) in the primarily Caucasian population.

Assay [2] can be described thus: Post hoc analysis of a single-arm open-label Phase 3 clinical study in Japanese subjects: IOP lowering in eyes with baseline IOP ≤19 mm Hg. The assay is classed as in vivo, human. As to conditions: Japanese population, baseline IOP ≤19 mm Hg (10 AM); 0.024% solution once daily in the evening; over the 12 months study period. From the text:
The findings reported below derive from a post hoc analysis of the results of a single-arm, multicenter, open-label Phase 3 clinical study that evaluated the IOP lowering effect of a 0.024% solution of Compound (1) dissolved in vehicle in Japanese subjects with open-angle glaucoma (including normal-tension glaucoma, pigmentary glaucoma, or pseudoexfoliative glaucoma) or ocular hypertension.
Subjects≥20 years instilled one drop of a 0.024% solution of Compound (1) once daily in the evening for 12 months. Intraocular pressure was measured at 10 AM at baseline, and every 4 weeks thereafter for a total of 13 visits. Study and non-study (i.e. fellow) eyes with normal IOP at baseline treated with Compound (1) 0.024% once a day in the evening (n=66 and n=79 for treated study and treated fellow eyes respectively) were identified, and IOP outcomes were summarized using descriptive statistics and two-sided, 95% confidence intervals (CI) for the means.
Normal IOP was defined as ≤19 mm Hg (mean IOP measured at 10 AM) in the Japanese population, since Asian populations typically have lower IOP than non-Asian populations.

Setting [3] is: 3 month efficacy phase, Compound (1) 0.024% once daily in the evening, timolol maleate 0.5% twice daily.

Consider `O=C(CCC/C=C\C[C@@H]1[C@@H](CC[C@@H](O)CCc2ccccc2)[C@H](O)C[C@@H]1O)OCCCCO[N+](=O)[O-]` (relative stereo) [Compound (1), [1R-[1α(Z), 2α(R*), 3α, 5α]]-7-[3,5-dihydroxy-2-(3-hydroxy-5-phenylpentyl)cyclopentyl]-5-heptenoic acid 4-(nitrooxy)butyl ester], for which the “IOP lowering effectiveness (in words)” value in assay [1] (eyes with IOP in the normal range (baseline ≤21 mm Hg), 0.024% QD in the evening) is “appears to be more effective than timolol maleate; also recorded: effective for IOP lowering in eyes with IOP in the normal range”. Besides, the IOP lowering in assay [1] (0.024% solution once daily in the evening, over the 12 months study period) is given as 4.2-4.9 mm Hg. Also, the IOP lowering in assay [1] (setting [3]) is 4.6-4.9 mm Hg. Besides, in assay [2], the “IOP lowering in the study eye” value is recorded as 3.4-4.2 mm Hg and the “IOP lowering in the treated fellow eye” value is 3.2-3.9 mm Hg.

Take `CC(C)(C)NC[C@H](O)COc1nsnc1N1CCOCC1` [timolol maleate, reference compound]: the IOP lowering in assay [1] (setting [3]) is 3.6-4.5 mm Hg.
